From patent publication US20240383845A1, “NAPHTHALENEDITHIOL AND DERIVATIVE THEREOF, AND PRODUCTION PROCESS AND USE FOR THE SAME” (SUGAI CHEMICAL INDUSTRY CO., LTD., priority 2021, published 2024)
Each block holds one compound with its values, some of them ahead of it.

What was measured:
[1] = Refractive index (abbe refractometer); type: physicochemical
Method: The refractive index of each sample was measured using an abbe refractometer (“NAR-lT” manufactured by ATAGO CO., LTD.) at a temperature of 25° C. and a wavelength of 589 nm. Depending on the species of each sample, the refractive index was measured as follows.
For the after-mentioned 16NDSH, 15NDSH, 26NDSH and 27NDSH; 15DGNDSH; 15DHENDSH; 16DMNDSH and 15DMNDSH; and 16DCNDSH and 15DCNDSH, a sample was dissolved in 1,3-dimethyl-2-imidazolidinone (DMI) to prepare multiple solutions with different concentrations, and the refractive index of each solution was measured at a temperature of 25° C. and a wavelength of 589 nm. From the results of the refractive index at each concentration, the refractive index value at 100% by mass of the concentration was determined by extrapolation.
For the after-mentioned 16NDSHMA, 15NDSHMA, 26NDSHMA and 27NDSHMA; 16NDSHA and 15NDSHA; 15DANDSH; and 15DVNDSH, polymerization may occur during the mixing, and thus a sample was dissolved in a methoquinone/DMI solution (a solution containing 4000 ppm of methoquinone relative to the mass of DMI) to prepare multiple solutions with different concentrations. The refractive index of each solution was measured at a temperature of 25° C. and a wavelength of 589 nm. From the results of the refractive index at each concentration, the refractive index value at 100% by mass of the concentration was determined by extrapolation.
For the after-mentioned 16DANDSH; 16DVNDSH; 16DGNDSH; and 16DHENDSH, a sample was liquid for a while after preparation, and thus the refractive index was measured in the state of an undiluted solution. Further, thiol-ene-based resins (thiol-ene-based resins obtained from 16NDSH or 15NDSH and divinylbenzene) were measured in the same manner. […]

[2] = Dissolubility or compatibility (maximum dissolved concentration, HPLC); type: physicochemical; conditions: for Dissolubility, Ethyl acetate / Dissolubility, MMA / Dissolubility, PGMEA / Dissolubility, Styrene / Dissolubility, Toluene / Dissolubility, DMF / Dissolubility, THF / Dissolubility, Methanol: 25° C.; for Dissolubility, MMA: methyl methacrylate; for Dissolubility, PGMEA: propylene glycol monomethyl ether acetate; for Dissolubility, DMF: N,N-dimethylformamide; for Dissolubility, THF: tetrahydrofuran
Method: In more detail, the sample was added to a predetermined amount of a solvent or a polymerizable component until the sample was no longer dissolved, and the sample content of the liquid layer (the solvent layer) of the resulting mixture was analyzed using an HPLC (“SPD-20A” manufactured by SHIMADZU CORPORATION), and thus the concentration (the maximum dissolved concentration) of the sample in the liquid layer (the solvent layer) was determined as a solubility.

[3] = stated for the raw material used, method not stated
[4] = 25° C., 589 nm, methoquinone/DMI solutions, value at 100% by mass by extrapolation
[5] = 25° C., 589 nm, DMI solutions of different concentrations, value at 100% by mass by extrapolation
[6] = 25° C., 589 nm, measured as undiluted liquid (also thiol-ene-based resins)

Compound: CCc1nc(C)c[nH]1 [2-ethyl-4-methylimidazole]
Refractive index [1, 3]: 1.499

Compound: c1cc(SCC2CO2)c2cccc(SCC3CO3)c2c1 (stereo not shown) [Example 15DGNDSH, 1,5-bis(glycidylthio)naphthalene]
Refractive index [1, 5]: 1.621
Dissolubility, Ethyl acetate [2]: 51.9 % by mass
Dissolubility, MMA [2]: 60.9 % by mass
Dissolubility, PGMEA [2]: 62.3 % by mass
Dissolubility, Styrene [2]: 43.6 % by mass
Dissolubility, Toluene [2]: 56.8 % by mass
melting point: 50 to 53 °C

Compound: Sc1cccc2c(S)cccc12 [Example 15NDSH, 1,5-naphthalenedithiol]
Refractive index [1, 5]: 1.711
Dissolubility, DMF [2]: 34.4 % by mass
Dissolubility, Ethyl acetate [2]: 7.05 % by mass
Dissolubility, Methanol [2]: 1.08 % by mass
Dissolubility, PGMEA [2]: 7.44 % by mass
Dissolubility, THF [2]: 29.0 % by mass
Dissolubility, Toluene [2]: 7.26 % by mass
saturation solubility ([2]; in 55% divinylbenzene (isomer mixture)): about 5 % by mass
saturation solubility ([2]; in curable composition with bisphenol A-type liquid epoxy resin): about 0.1 % by mass

Compound: C=CCSc1ccc2c(SCC=C)cccc2c1 [Example 16DANDSH, 1,6-bis(allylthio)naphthalene]
Refractive index [1, 6]: 1.667
Dissolubility, Ethyl acetate [2]: Freely blended (>90) % by mass
Dissolubility, MMA [2]: Freely blended (>90) % by mass
Dissolubility, PGMEA [2]: Freely blended (>90) % by mass
Dissolubility, Styrene [2]: Freely blended (>90) % by mass
Dissolubility, Toluene [2]: Freely blended (>90) % by mass

Compound: O=C(O)CSc1ccc2c(SCC(=O)O)cccc2c1 [Example 16DCNDSH, 1,6-bis(carboxymethylthio)naphthalene]
Refractive index [1, 5]: 1.663
Dissolubility, DMF [2]: 61.0 % by mass
Dissolubility, Ethyl acetate [2]: 0.56 % by mass
Dissolubility, MMA [2]: 0.14 % by mass
Dissolubility, PGMEA [2]: 0.98 % by mass
Dissolubility, THF [2]: 30.5 % by mass
melting point: 176 to 178 °C

Compound: c1cc(SCC2CO2)c2ccc(SCC3CO3)cc2c1 (stereo not shown) [Example 16DGNDSH, 1,6-bis(glycidylthio)naphthalene]
Refractive index [1, 6]: 1.665
Dissolubility, Ethyl acetate [2]: Freely blended (>90) % by mass
Dissolubility, MMA [2]: Freely blended (>90) % by mass
Dissolubility, PGMEA [2]: Freely blended (>90) % by mass
Dissolubility, Styrene [2]: Freely blended (>90) % by mass
Dissolubility, Toluene [2]: Freely blended (>90) % by mass

Compound: OCCSc1ccc2c(SCCO)cccc2c1 [Example 16DHENDSH, 1,6-bis(2-hydroxyethylthio)naphthalene]
Refractive index [1, 6]: 1.672
Dissolubility, Ethyl acetate [2]: Freely blended (>90) % by mass
Dissolubility, MMA [2]: Freely blended (>90) % by mass
Dissolubility, PGMEA [2]: Freely blended (>90) % by mass
Dissolubility, Styrene [2]: 2.87 % by mass
Dissolubility, Toluene [2]: 1.69 % by mass

Compound: C=CSc1ccc2c(SC=C)cccc2c1 [Example 16DVNDSH, 1,6-bis(vinylthio)naphthalene]
Refractive index [1, 6]: 1.699
Dissolubility, Ethyl acetate [2]: Freely blended (>90) % by mass
Dissolubility, MMA [2]: Freely blended (>90) % by mass
Dissolubility, PGMEA [2]: Freely blended (>90) % by mass
Dissolubility, Styrene [2]: Freely blended (>90) % by mass
Dissolubility, Toluene [2]: Freely blended (>90) % by mass

Compound: Sc1ccc2c(S)cccc2c1 [Example 16NDSH, 1,6-naphthalenedithiol]
Refractive index [1, 5]: 1.722
Dissolubility, Methanol [2]: 19.3 % by mass

Compound: C=C(C)C(=O)Sc1ccc2cc(SC(=O)C(=C)C)ccc2c1 [Example 26NDSHMA, 2,6-bis(methacryloylthio)naphthalene]
Refractive index [1, 4]: 1.651
Dissolubility, DMF [2]: 4.59 % by mass
Dissolubility, Ethyl acetate [2]: 1.08 % by mass
Dissolubility, Methanol [2]: 0.13 % by mass
Dissolubility, MMA [2]: 2.42 % by mass
Dissolubility, PGMEA [2]: 1.46 % by mass
Dissolubility, Styrene [2]: 5.00 % by mass
Dissolubility, THF [2]: 9.59 % by mass
Dissolubility, Toluene [2]: 3.73 % by mass

Compound: C=C(C)C(=O)Sc1ccc2ccc(SC(=O)C(=C)C)cc2c1 [Example 27NDSHMA, 2,7-bis(methacryloylthio)naphthalene]
Refractive index [1, 4]: 1.649
Dissolubility, DMF [2]: 17.5 % by mass
Dissolubility, Ethyl acetate [2]: 3.20 % by mass
Dissolubility, Methanol [2]: 0.20 % by mass
Dissolubility, MMA [2]: 4.36 % by mass
Dissolubility, PGMEA [2]: 2.68 % by mass
Dissolubility, Styrene [2]: 7.92 % by mass
Dissolubility, THF [2]: 13.1 % by mass
Dissolubility, Toluene [2]: 6.84 % by mass

Compound: C=Cc1ccccc1 [styrene]
Refractive index [1, 3]: 1.544

The next lines start with the values.

Refractive index [1, 4]: 1.653
Dissolubility, Ethyl acetate [2]: 16.4 % by mass
Dissolubility, MMA [2]: 26.6 % by mass
Dissolubility, PGMEA [2]: 13.7 % by mass
Dissolubility, Styrene [2]: 10.6 % by mass
Dissolubility, Toluene [2]: 26.1 % by mass
melting point: 78 to 79 °C
Compound: C=CCSc1cccc2c(SCC=C)cccc12 [Example 15DANDSH, 1,5-bis(allylthio)naphthalene]

Refractive index [1, 5]: 1.657
Dissolubility, DMF [2]: 10.1 % by mass
Dissolubility, Ethyl acetate [2]: 0.03 % by mass
Dissolubility, MMA [2]: < 0.01 % by mass
Dissolubility, PGMEA [2]: 0.02 % by mass
Dissolubility, THF [2]: 0.67 % by mass
Compound: O=C(O)CSc1cccc2c(SCC(=O)O)cccc12 [Example 15DCNDSH, 1,5-bis(carboxymethylthio)naphthalene]

Refractive index [1, 5]: 1.668
Dissolubility, Ethyl acetate [2]: 3.01 % by mass
Dissolubility, MMA [2]: 34.7 % by mass
Dissolubility, PGMEA [2]: 3.60 % by mass
Dissolubility, Styrene [2]: 0.35 % by mass
Dissolubility, Toluene [2]: 0.19 % by mass
melting point: 84 to 86 °C
Compound: OCCSc1cccc2c(SCCO)cccc12 [Example 15DHENDSH, 1,5-bis(2-hydroxyethylthio)naphthalene]

Refractive index [1, 5]: 1.690
Dissolubility, Ethyl acetate [2]: 1.25 % by mass
Dissolubility, MMA [2]: 1.44 % by mass
Dissolubility, PGMEA [2]: 1.25 % by mass
Dissolubility, Styrene [2]: 3.13 % by mass
Dissolubility, Toluene [2]: 2.36 % by mass
saturation solubility ([2]; in PMMA resin composition): about 10 % by mass
melting point: 149 to 151 °C
Compound: CSc1cccc2c(SC)cccc12 [Example 15DMNDSH, 1,5-bis(methylthio)naphthalene]

Refractive index [1, 4]: 1.685
Dissolubility, Ethyl acetate [2]: 39.0 % by mass
Dissolubility, MMA [2]: 43.6 % by mass
Dissolubility, PGMEA [2]: 26.3 % by mass
Dissolubility, Styrene [2]: 45.8 % by mass
Dissolubility, Toluene [2]: 59.6 % by mass
melting point: 50 to 52 °C
Compound: C=CSc1cccc2c(SC=C)cccc12 [Example 15DVNDSH, 1,5-bis(vinylthio)naphthalene]

Refractive index [1, 4]: 1.646
Dissolubility, Ethyl acetate [2]: 1.57 % by mass
Dissolubility, MMA [2]: 1.93 % by mass
Dissolubility, PGMEA [2]: 1.50 % by mass
Dissolubility, Styrene [2]: 4.24 % by mass
Dissolubility, Toluene [2]: 2.61 % by mass
melting point: 156 to 158 °C
Compound: C=CC(=O)Sc1cccc2c(SC(=O)C=C)cccc12 [Example 15NDSHA, 1,5-bis(acryloylthio)naphthalene]

Refractive index [1, 4]: 1.638
Dissolubility, DMF [2]: 13.2 % by mass
Dissolubility, Ethyl acetate [2]: 4.36 % by mass
Dissolubility, Methanol [2]: 0.36 % by mass
Dissolubility, MMA [2]: 5.22 % by mass
Dissolubility, PGMEA [2]: 3.34 % by mass
Dissolubility, Styrene [2]: 10.4 % by mass
Dissolubility, THF [2]: 18.7 % by mass
Dissolubility, Toluene [2]: 6.73 % by mass
saturation solubility ([2]; in styrene (curable resin)): about 10 % by mass
Compound: C=C(C)C(=O)Sc1cccc2c(SC(=O)C(=C)C)cccc12 [Example 15NDSHMA, 1,5-bis(methacryloylthio)naphthalene]

Refractive index [1, 4]: 1.647
Dissolubility, DMF [2]: 59.5 % by mass
Dissolubility, Ethyl acetate [2]: 44.6 % by mass
Dissolubility, Methanol [2]: 2.49 % by mass
Dissolubility, MMA [2]: 44.1 % by mass
Dissolubility, PGMEA [2]: 31.1 % by mass
Dissolubility, Styrene [2]: 51.1 % by mass
Dissolubility, THF [2]: 67.6 % by mass
Dissolubility, Toluene [2]: 50.7 % by mass
Compound: C=C(C)C(=O)Sc1ccc2c(SC(=O)C(=C)C)cccc2c1 [Example 16NDSHMA, 1,6-bis(methacryloylthio)naphthalene]
